# Test results published in patent publication US9296734B2 (AMGEN INC., priority 2013, dated 2016).
# Like-named read-outs stand apart in the source and are kept apart here.
# Key:
# [1] = target: Beta Secretase enzyme (BACE) (Homo sapiens (Human), UniProt P56817); test: In vitro enzymatic BACE FRET assay; type: biochemical; conditions: read-out: BACE 1 FRET assay IC50
# Procedure: In Vitro Enzymatic BACE FRET (Fluorescence Resonance Energy Transfer) Assay (Enzyme Assay Data in the Example Table I)
# The assay buffer used in this screen is 0.05 M acetate, pH 4.2, 10% DMSO final, 100 uM genapol (which is a nonionic detergent, below its Critical Micelle Concentration). […] This assay is effectively started by the addition of FRET substrate (50 nM) and the combination is incubated for one hour. The FRET assay is terminated with by addition of Tris buffer, which raises the pH to neutrality, and the fluorescence is determined. The FRET substrate is a peptide with commercially available fluorophore and quencher, on opposite sides of the BACE cleavage site.
# [2] = system: Aβ40 in conditioned medium of cells stably expressing Amyloid Precursor Protein (APP); test: In vitro BACE cell-based assay (Aβ40 sandwich ELISA); conditions: Homo sapiens
# Procedure: In Vitro BACE Cell-Based Assay
# The cell-based assay measures inhibition or reduction of Aβ40 in conditioned medium of test compound treated cells expressing amyloid precursor protein.
# Cells stably expressing Amyloid Precursor Protein (APP) were plated at a density of 40K cells/well in 96 well plates (Costar). The cells were cultivated for 24 hours at 37° C. and 5% CO2 in DMEM supplemented with 10% FBS. The test compounds were then added to cells in 10-point dose response concentrations with the starting concentration being either 100 μM or 10 μM. The compounds were diluted from stock solutions in DMSO and the final DMSO concentration of the test compounds on cells was 0.1%. After 24 h of incubation with the test compounds the supernatant conditioned media was collected and the Aβ 40 levels were determined using a sandwich ELISA. The IC50 of the compound was calculated from the percent of control or percent inhibition of Aβ 40 as a function of the concentration of the test compound.
# The sandwich ELISA to detect Aβ 40 was performed in 96 well microtiter plates, which were pre-treated with goat anti-rabbit IgG (Pierce). The capture and detecting antibody pair that were used to detect Aβ 40 from cell supernatants were affinity purified pAb40 (Biosource) and biotinylated 6E10 (Signet Labs Inc.), respectively. The optimal concentration for the pAb40 antibody was 3 μg/ml in Superblock/TBS (Pierce) that was supplemented with 0.05% Tween 20 (Sigma).
# Cellular supernatants were incubated with the capture antibody for 3 h at 4° C., followed by 3 wash steps in TBS-tween (0.05%). The detecting antibody incubation was for 2 h at 4° C., again followed by the wash steps as described previously. The final readout of the ELISA is Time-Resolved Fluorescence (counts per minute) using Delfia reagents Streptavidin-Europium and Enhancement solutions (Perkin Elmer) and the Victor 2 multilabel counter (Perkin Elmer).
# Cathepsin D (Cat D) = Cathepsin D (Cat D) (Homo sapiens (Human), UniProt P07339); test: In vitro enzymatic Cathepsin D (Cat D) FRET assay; type: biochemical; conditions: read-out: CatD IC50
# How it was run: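 CHO-expressed recombinant Cat D cleaves a fluorophore/quencher FRET peptide (20 nM) in 0.05 M citrate pH 3.5, 5 mM CHAPS, 10% DMSO final, over 1 h. Tris addition neutralizes pH to stop the reaction; fluorescence read at excitation 500 nm, emission 580 nm.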
# [3] = HEK293, average IC50, HEK cells, read-out: HEK cell assay IC50
# [4] = HEK293, read-out: HEK cell assay IC50
# [5] = average IC50, BACE enzyme assay
# [6] = HEK293, average IC50, HEK cell assay, read-out: HEK cell assay IC50
# [7] = average IC50, cathepsin D enzyme assay
# Sequence of Beta Secretase enzyme (BACE) (P56817 46-501): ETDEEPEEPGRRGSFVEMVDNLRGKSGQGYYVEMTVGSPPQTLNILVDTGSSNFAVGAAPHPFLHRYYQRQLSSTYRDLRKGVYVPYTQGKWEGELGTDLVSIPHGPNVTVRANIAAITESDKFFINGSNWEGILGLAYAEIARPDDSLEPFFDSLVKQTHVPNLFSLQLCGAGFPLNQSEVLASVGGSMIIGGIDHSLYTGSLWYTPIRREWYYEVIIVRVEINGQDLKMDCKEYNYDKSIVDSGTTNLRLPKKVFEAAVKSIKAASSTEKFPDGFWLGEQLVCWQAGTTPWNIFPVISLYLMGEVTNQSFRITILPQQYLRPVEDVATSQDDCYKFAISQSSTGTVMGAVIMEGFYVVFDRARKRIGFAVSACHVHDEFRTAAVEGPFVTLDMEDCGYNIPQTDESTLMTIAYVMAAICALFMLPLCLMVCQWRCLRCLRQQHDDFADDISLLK
# Sequence of Cathepsin D (Cat D) (P07339 65-412, species assumed): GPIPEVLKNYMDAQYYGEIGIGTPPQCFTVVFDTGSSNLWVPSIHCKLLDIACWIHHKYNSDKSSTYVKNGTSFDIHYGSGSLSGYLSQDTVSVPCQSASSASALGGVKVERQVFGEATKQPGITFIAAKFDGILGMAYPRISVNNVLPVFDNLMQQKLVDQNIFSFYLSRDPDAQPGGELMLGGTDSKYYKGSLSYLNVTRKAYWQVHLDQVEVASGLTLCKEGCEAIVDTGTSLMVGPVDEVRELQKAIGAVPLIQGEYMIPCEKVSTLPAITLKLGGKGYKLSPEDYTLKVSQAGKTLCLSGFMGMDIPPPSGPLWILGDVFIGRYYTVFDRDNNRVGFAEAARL
Structure (SMILES),IC50 ([1]; average IC50),"IC50 [2, 3]",IC50 (Cathepsin D (Cat D); average IC50),"IC50 [2, 4]","IC50 [1, 5]","IC50 [2, 6]",IC50 (Cathepsin D (Cat D); [7])
"COc1cnc2c(Nc3ccc(F)c([C@]4(CF)C[C@@H](C(F)(F)F)OC(N)=N4)c3)nccc2n1 (racemic) [Example 9, (4S,6S)-4-(2-fluoro-5-((2-methoxypyrido[3,4-b]pyrazin-5-yl)amino)phenyl)-4-(fluoromethyl)-6-(trifluoromethyl)-5,6-dihydro-4H-1,3-oxazin-2-amine]",0.05 µM,0.372 µM,> 400 µM,–,–,–,–
"Cc1cc(Cl)cnc1C(=O)Nc1ccc(F)c([C@]2(CF)C[C@@H](C(F)(F)F)OC(N)=N2)c1 [Example 4, N-(3-((4S,6S)-2-amino-4-(fluoromethyl)-6-(trifluoromethyl)-5,6-dihydro-4H-1,3-oxazin-4-yl)-4-fluorophenyl)-5-chloro-3-methylpicolinamide]",0.008 µM,–,> 400 µM,0.031 µM,–,–,–
"NC1=N[C@](CF)(c2cc(NC(=O)c3ccc(OCC(F)(F)F)cn3)ccc2F)C[C@@H](C(F)(F)F)O1 [Example 5, N-(3-((4S,6S)-2-amino-4-(fluoromethyl)-6-(trifluoromethyl)-5,6-dihydro-4H-1,3-oxazin-4-yl)-4-fluorophenyl)-5-(2,2,2-trifluoroethoxy)picolinamide]",0.043 µM,0.263 µM,> 400 µM,–,–,–,–
"Cc1c(C(=O)Nc2ccc(F)c([C@]3(CF)C[C@@H](C(F)(F)F)OC(N)=N3)c2)nc2ccc(Cl)cn12 [Example 6, N-(3-((4S,6S)-2-amino-4-(fluoromethyl)-6-(trifluoromethyl)-5,6-dihydro-4H-1,3-oxazin-4-yl)-4-fluorophenyl)-6-chloro-3-methylimidazo[1,2-a]pyridine-2-carboxamide]",0.036 µM,0.0522 µM,> 400 µM,–,–,–,–
"Cc1c(C(=O)Nc2ccc(F)c([C@]3(CF)C[C@@H](C(F)(F)F)OC(N)=N3)c2)nc2ccccn12 [Example 7, N-(3-((4S,6S)-2-amino-4-(fluoromethyl)-6-(trifluoromethyl)-5,6-dihydro-4H-1,3-oxazin-4-yl)-4-fluorophenyl)-3-methylimidazo[1,2-a]pyridine-2-carboxamide]",1.52 µM,0.888 µM,> 400 µM,–,–,–,–
"NC1=N[C@](CF)(c2cc(Nc3nccc4cc(Cl)cnc34)ccc2F)C[C@@H](C(F)(F)F)O1 [Example 8, (4S,6S)-4-(5-((3-chloro-1,7-naphthyridin-8-yl)amino)-2-fluorophenyl)-4-(fluoromethyl)-6-(trifluoromethyl)-5,6-dihydro-4H-1,3-oxazin-2-amine]",0.018 µM,0.203 µM,> 400 µM,–,–,–,–
"NC1=N[C@](CF)(c2cc(Nc3ncccc3F)ccc2F)C[C@@H](C(F)(F)F)O1 [Example 14, (4S,6S)-4-(2-fluoro-5-((3-fluoropyridin-2-yl)-amino)phenyl)-4-(fluoromethyl)-6-(trifluoromethyl)-5,6-dihydro-4H-1,3-oxazin-2-amine]",–,–,–,–,0.574 µM,0.758 µM,879 µM
"NC1=N[C@](CF)(c2cc(Nc3ccnc(Br)c3)ccc2F)C[C@@H](C(F)(F)F)O1 [Example 17, (4S,6S)-4-(5-((2-bromopyridin-4-yl)amino)-2-fluorophenyl)-4-(fluoromethyl)-6-(trifluoromethyl)-5,6-dihydro-4H-1,3-oxazin-2-amine]",–,–,–,–,6.49 µM,4.34 µM,469 µM
"NC1=N[C@](CF)(c2cc(Nc3nccc4nc(C(F)(F)F)cnc34)ccc2F)C[C@@H](C(F)(F)F)O1 [Example 18, (4S,6S)-4-(2-fluoro-5-((2-(trifluoromethyl)pyrido[3,4-b]pyrazin-5-yl)amino)phenyl)-4-(fluoromethyl)-6-(trifluoromethyl)-5,6-dihydro-4H-1,3-oxazin-2-amine]",–,–,–,–,0.118 µM,0.336 µM,> 14.8 µM
"NC1=N[C@](CF)(c2cc(Nc3nccc4cn(C(F)F)nc34)ccc2F)C[C@@H](C(F)(F)F)O1 [Example 20, (4S,6S)-4-(5-((2-(difluoromethyl)-2H-pyrazolo[3,4-c]pyridin-7-yl)amino)-2-fluorophenyl)-4-(fluoromethyl)-6-(trifluoromethyl)-5,6-dihydro-4H-1,3-oxazin-2-amine 2,2,2-trifluoroacetate]",–,–,–,10.6 µM,33 µM,–,> 400 µM
"N#Cc1cnc2c(Nc3ccc(F)c([C@]4(CF)C[C@@H](C(F)(F)F)OC(N)=N4)c3)nccc2c1 [Example 22, 8-((3-((4S,6S)-2-amino-4-(fluoromethyl)-6-(trifluoromethyl)-5,6-dihydro-4H-1,3-oxazin-4-yl)-4-fluorophenyl)amino)-1,7-naphthyridine-3-carbonitrile]",0.021 µM,0.057 µM,> 133 µM,–,–,–,–
"N#Cc1cc(Nc2ccc(F)c([C@]3(CF)C[C@@H](C(F)(F)F)OC(N)=N3)c2)ccn1 [Example 24, 4-((3-((4S,6S)-2-amino-4-(fluoromethyl)-6-(trifluoromethyl)-5,6-dihydro-4H-1,3-oxazin-4-yl)-4-fluorophenyl)amino)picolinonitrile]",–,–,–,–,19 µM,7 µM,1760 µM
"C[C@@]1(c2cc(NC(=O)c3ccc(Cl)cn3)ccc2F)C[C@@H](C(F)(F)F)OC(N)=N1 [Example 26, N-(3-((4S,6S)-2-amino-4-methyl-6-(trifluoromethyl)-5,6-dihydro-4H-1,3-oxazin-4-yl)-4-fluorophenyl)-5-chloropicolinamide]",0.0123 µM,0.0049 µM,> 400 µM,–,–,–,–
"COc1cnc(C(=O)Nc2ccc(F)c([C@]3(C)C[C@@H](C(F)(F)F)OC(N)=N3)c2)cn1 [Example 27, N-(3-((4S,6S)-2-amino-4-methyl-6-(trifluoromethyl)-5,6-dihydro-4H-1,3-oxazin-4-yl)-4-fluorophenyl)-5-methoxypyrazine-2-carboxamide]",0.03 µM,–,> 400 µM,–,–,–,–
"C#CCOc1ccc(C(=O)Nc2ccc(F)c([C@]3(C)C[C@@H](C(F)(F)F)OC(N)=N3)c2)nc1 [Example 28, N-(3-((4S,6S)-2-amino-4-methyl-6-(trifluoromethyl)-5,6-dihydro-4H-1,3-oxazin-4-yl)-4-fluorophenyl)-5-(prop-2-yn-1-yloxy)picolinamide]",–,–,–,–,0.0176 µM,0.0093 µM,666 µM
"C[C@@]1(c2cc(Nc3nc4ccc(Cl)cc4o3)ccc2F)C[C@@H](C(F)(F)F)OC(N)=N1 [Example 29, N-(3-((4S,6S)-2-amino-4-methyl-6-(trifluoromethyl)-5,6-dihydro-4H-1,3-oxazin-4-yl)-4-fluorophenyl)-6-chlorobenzo[d]oxazol-2-amine]",–,–,–,–,> 40 µM,3.01 µM,210 µM
"C[C@@]1(c2cc(Nc3nc4cc(Cl)ccc4o3)ccc2F)C[C@@H](C(F)(F)F)OC(N)=N1 [Example 30, N-(3-((4S,6S)-2-amino-4-methyl-6-(trifluoromethyl)-5,6-dihydro-4H-1,3-oxazin-4-yl)-4-fluorophenyl)-5-chlorobenzo[d]oxazol-2-amine]",–,–,–,–,26.8 µM,2.88 µM,162 µM
"NC1=N[C@](CF)(c2cc(NC(=O)c3ncc(Cl)cc3F)ccc2F)C[C@@H](C(F)(F)F)O1 [Example 34, N-(3-((4S,6S)-2-amino-4-(fluoromethyl)-6-(trifluoromethyl)-5,6-dihydro-4H-1,3-oxazin-4-yl)-4-fluorophenyl)-5-chloro-3-fluoropicolinamide]",–,–,–,–,0.051 µM,0.042 µM,> 400 µM
"NC1=N[C@](CF)(c2cc(Oc3cc(-c4ccccc4)ccn3)ccc2F)C[C@@H](C(F)(F)F)O1 [Example 102, (4S,6S)-4-(2-fluoro-5-((4-phenylpyridin-2-yl)oxy)phenyl)-4-(fluoromethyl)-6-(trifluoromethyl)-5,6-dihydro-4H-1,3-oxazin-2-amine]",–,–,114 µM,2.82 µM,–,–,–
